Laboratory results reported in patent US20260217983A1, “SULFONIUM SALT PHOTOINITIATORS AND METHODS OF LED CURING A COMPOSITION WITH SAID SULFONIUM SALT PHOTOINITIATORS” (ARKEMA FRANCE, priority 2022, published 2026).

What was measured:
[1] = FTIR-ATR cure test of hybrid formulations (acrylate, epoxide conversion, 1100 cm^-1 peak growth); details: 405 nm; for Epoxide cure compared with Omnicat 550: 0.5% TPO-L, matched with control SC938/CPTX; for Epoxide cure compared with Omnicat 550 / acrylate cure with or without radical photoinitiator: high or low epoxide hybrid systems; for epoxide cure and total cationic cure compared with Omnicat 550 and SC992: in presence or absence of radical photoinitiator
Procedure: Matrixes: In a 1000 mL of metal can, formulation matrix was charged according to the percentage in Table 12. The 1000-1005 g mixture of each matrix sample was prepared and mixed by mechanical mixer for about 1 hour around 60° C. until the solution became clear. Formulations: In a white max 50 jar from FlackTek Inc., photoinitiator and propylene carbonate were loaded at first, mixed by hand with stainless steel spatula, placed in 60° C. oven for about 1 h, mixed again until it became clear. Then, formulation matrix was charged according to the percentage in one of Table 13 to 21. The […]-52.60 g mixture of each sample was prepared and mixed for 3 minutes at 3000 RPM in Speed Mixer from FleackTec Inc. Then, all jars were placed in 60° C. oven for about 2 h, taken out and immediately mixed for another 2 minutes until the solution became clear.
A Fourier Transform Infrared (FTIR) with an Attenuated Total Reflection (ATR) setup was used. All polymerization rate measurements were performed using Nicolet iS50 FT-IR Spectrometer from Thermo Scientific, equipped with a standard DLaTGS detector. A lamp holder for the ART platform of FTIR unit can be customized and printed from Arkema N3xtDimention® engineered resin N3D-TOUGH784 in order to ensure precisely fit of a 365 nm lamp Accucure ULM-2-365 or a 405 nm lamp Accucure ULM-2-405 from Digital Light Labs. On the bottom of this lamp holder, a dry air channel is built in to allow air uniformly blowing over sample surface, the gas flow rate can be controlled over a rotameter. The LED light was manually triggered by Ultraviolet illumination & Measurement System. LED light exposure can be programed by AccuCure software. For measurement, 25 μL of liquid sample was placed in the center of an ATR crystal. 3 mil of thin film was prepared by a customized coating applicator (3 mil WFM, G1046 from BYK). The LED lamp with holder was place on the top of ART platform. Then FTIR scan was initiated to collect liquid IR spectrum at first. Each IR spectrum of a specific exposure time at 10 mW/cm^2 of LED light were collected. Measurements of acrylate conversion were taken at the peak height under the reference peak around 1727 cm^−1; the acrylate peak of SR833S at approximately 1407 cm^−1, the epoxide peak of UviCure S105 at approximately 790 cm^−1, and the oxetane peak of UViCure S130 at approximately 970 cm^−1 were also measured. Since the ring opening of both epoxide and oxetane generated C—O—C bond, the growth of C—O—C IR peak height at ~1100 cm^−1 was monitored as well. The resulting of peak 1100 cm^−1 growth rate could be calculated to assess total cationic cure speed. Peak heights were determined using the same baseline where a baseline is chosen to be the two lowest points between 600 cm^−1 and 1800 cm^−1. The peak height under the peak and above the baseline was then determined. The integration limits for liquid and the cured sample are not identical but are similar, especially for the reference peak.
The ratios of the acrylate peak height, epoxide peak height, ring opening peak height from both epoxide and oxetane to the reference peak height were determined for both the liquid and the cured samples. Degree of cure or conversion or peak growth rate, expressed as percentage reacted acrylate or epoxide or ring opening of both epoxide and oxetane, was calculated from the equation below: […]
Where Rliq is the peak height ratio of the liquid sample and Rc is the peak height ratio of the LED cured sample. The resulting acrylate and epoxide conversions or C—O—C growth rates were collected and listed in Tables 13 to 21, plotted in FIG. 1 to 8 and FIG. 10.

[2] = Thermal stability by DSC in UViCure S105E resin; type: physicochemical; details: DSC at 10° C./min, loading 1 wt % (Omnicat BL550 4 wt %; Speedcure 938/CPTX 1/0.5 wt %)
[3] = Working-curve measurement (Ec, Dp) on 405 nm DLP printers; details: at lower concentration
Procedure: Working-curves were printed on the 405 nm~3 mW/cm^2 Flashforge Hunter DLP printer or on the 405 nm~12 mW/cm^2 B9 Core 550 DLP printer from B9Creation. Various energy dosages were irradiated in sections of the build area (without a build platform installed), resulting in individual squares or thin films being cured. The thickness of the individual thin films were measured with a low force digital caliper+comparator stand from Mitutoyo to determine the cure depths. A plot of the cure depths vs. the logarithm of energy dosages was used to determine the critical exposure (Ec, mJ/cm^2) and penetration depth (Dp, mils).

Structure (SMILES)	Epoxide cure compared with Omnicat 550 [1]	acrylate cure with or without radical photoinitiator [1]	epoxide cure and total cationic cure compared with Omnicat 550 and SC992 ([1]; hybrid systems)	acrylate cure in presence of BKL or XKm, or without any radical initiator ([1]; hybrid systems, like SC938/CPTX)	onset temperature of thermal polymerisation [2] [° ° C.]	Dp and Ec compared with 4 (comp.) [3]
CCc1cc(CC)c2sc3ccc([S+](c4ccc(C)cc4)c4ccc(C(=O)c5ccccc5)cc4)cc3c(=O)c2c1 (stereo not drawn) [Photoinitiator 4, (4-benzoylphenyl)(5,7-diethyl-9-oxo-9H-thioxanthen-2-yl)(4-methylphenyl)sulfonium Hexafluorophosphate]	better than that from Omnicat 550	high acrylate cure	better epoxide cure and total cationic cure than Omnicat 550 and SC992	could cure acrylate very well	–	–
CC(C)c1ccc2sc3ccc(-[s+]4c5ccccc5c(=O)c5cc(C(C)C)ccc54)cc3c(=O)c2c1 (stereo not drawn) [Photoinitiator 1, 9-oxo-10-[9-oxo-7-(propan-2-yl)-9H-thioxanthen-2-yl]-2-(propan-2-yl)-9H-thioxanthen-10-ium hexafluorophosphate]	better than that from Omnicat 550	–	–	–	~220	–
CCCOc1ccc(Cl)c2c(=O)c3cc(-[s+]4c5ccccc5c(=O)c5c(Cl)ccc(OCCC)c54)ccc3sc12 (stereo not drawn) [Photoinitiator 5, 1-chloro-10-(8-chloro-9-oxo-5-propoxy-9H-thioxanthen-2-yl)-9-oxo-4-propoxy-9H-thioxanthen-10-ium Hexafluorophosphate]	better than that from Omnicat 550	high acrylate cure	better epoxide cure and total cationic cure than Omnicat 550 and SC992	–	~214	lower Op and higher Ec than 4 (comp.)
Cc1ccc([S+](c2ccc(C(=O)c3ccccc3)cc2)c2ccc3sc4ccc(C(C)C)cc4c(=O)c3c2)cc1 (stereo not drawn) [Photoinitiator 2, (4-benzoylphenyl)(4-methylphenyl)[9-oxo-7-(propan-2-yl)-9H-thioxanthen-2-yl]sulfonium Hexafluorophosphate]	–	–	–	–	~240	–
